Target: T1, COX-2 (Homo sapiens, UniProt P35354)
T1 sequence (P35354 18-604): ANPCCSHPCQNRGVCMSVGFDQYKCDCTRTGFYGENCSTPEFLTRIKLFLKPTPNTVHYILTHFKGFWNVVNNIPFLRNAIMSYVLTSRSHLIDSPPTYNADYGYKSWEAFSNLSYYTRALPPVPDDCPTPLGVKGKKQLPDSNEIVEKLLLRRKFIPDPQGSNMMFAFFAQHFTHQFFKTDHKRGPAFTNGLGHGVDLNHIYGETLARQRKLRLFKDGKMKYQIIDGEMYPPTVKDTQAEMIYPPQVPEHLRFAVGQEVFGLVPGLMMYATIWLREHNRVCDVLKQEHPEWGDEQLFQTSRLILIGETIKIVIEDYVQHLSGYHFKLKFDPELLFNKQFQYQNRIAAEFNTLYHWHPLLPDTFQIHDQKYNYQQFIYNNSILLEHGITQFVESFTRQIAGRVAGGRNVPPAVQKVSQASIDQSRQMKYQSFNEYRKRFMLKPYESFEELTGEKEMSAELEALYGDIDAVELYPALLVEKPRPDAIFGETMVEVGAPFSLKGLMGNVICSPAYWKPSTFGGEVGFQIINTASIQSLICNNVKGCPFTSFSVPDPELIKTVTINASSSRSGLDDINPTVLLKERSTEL
Experiment: PET neuroimaging of rats with localized human COX-2 overexpression (intrastriatal AAV2-GFP-hCOX2)
Format: in vivo
Design: FLAG; P2A linker remnant (GFP cassette co-expressed, separated by P2A); host or cells: rat striatal (caudate putamen) neurons transduced in vivo with AAV2, human synapsin promoter
Conditions: COX-2 overexpression rat model
Experimental: Localized overexpression of human COX-2 was induced in rats with intrastriatal injections of AAV2-GFP-hCOX2 to the right caudate and AAV2-GFP (control virus) to the left caudate (Figure 2A).[53] Animals also received a systemic injection of mannitol to enhance vector spread and transgene expression.[54] To directly compare the kinetic profiles of the three COX-2 tracers, intrasubject imaging was performed in several rats. Each animal was scanned under baseline and competition (+celecoxib) conditions, testing each tracer within each animal (initial data in Figure 2). […] The full experimental design was then replicated (Figure S8 in the Supporting Information). An additional experiment lacking the control virus to the left caudate was performed to facilitate assessment of tracer uptake that could be mediated by the instrastiatal injection through blood brain barrier disruption (Figure S9 in the Supporting Information).
In accordance with Massachusetts General Hospital Institutional Animal Care and Use Committee (IACUC) protocols, Sprague Dawley rats (300-500g, Charles River Laboratories), wildtype mice (Strain […]
Respiratory rates and body temperature were monitored through all imaging and surgical procedures, generally using a respiratory pad and rectal probe. […]
Figure 9). […] Using a sterile ruler coordinates ML 2.5 mm; AP 0.5 mm was measured and marked respective t o bregma. […]

time of clear separation of right caudate PET signal from controls (left caudate and cerebellum): 10 min
Structure (SMILES): [11CH3]S(=O)(=O)c1ccc(-c2cccc(NCc3ccoc3)n2)cc1 [[^11C]BRD1158]
